According to US20170253601A1, “Substituted Pyrrolidine Compounds” (EPIZYME, INC., priority 2014, published 2017):

target: T1, SMYD2 (Homo sapiens, UniProt Q9NRG4); assay: SMYD2 Biochemical Assay (3H-SAM, biotinylated peptide substrate, Flashplate); conditions: IC50 values are an average of n = 1 to n = 50; read-out: SMYD2 Biochem IC50 (μM)*
T1 construct: Full length SMYD2 (NP 064582.2) was cloned; His6 (N, cleaved yes); FLAG (N); made in house; host or cells: Sf9 insect cells
How it was run: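 Full-length His/FLAG-tagged SMYD2 expressed in Sf9 cells with tag cleaved, 1.5 nM, pre-incubated 30 min at room temperature with compound, then 10 nM 3H-SAM and 60 nM biotinylated peptide added. Buffer 20 mM Bicine pH 7.6, 1 mM TCEP, 0.005% BSG, 0.002% Tween20, 2% DMSO. Stopped with 600 uM cold SAM; 3H-peptide captured on streptavidin Flashplate; IC50 by curve fit.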

T1 sequence (Q9NRG4 whole entry): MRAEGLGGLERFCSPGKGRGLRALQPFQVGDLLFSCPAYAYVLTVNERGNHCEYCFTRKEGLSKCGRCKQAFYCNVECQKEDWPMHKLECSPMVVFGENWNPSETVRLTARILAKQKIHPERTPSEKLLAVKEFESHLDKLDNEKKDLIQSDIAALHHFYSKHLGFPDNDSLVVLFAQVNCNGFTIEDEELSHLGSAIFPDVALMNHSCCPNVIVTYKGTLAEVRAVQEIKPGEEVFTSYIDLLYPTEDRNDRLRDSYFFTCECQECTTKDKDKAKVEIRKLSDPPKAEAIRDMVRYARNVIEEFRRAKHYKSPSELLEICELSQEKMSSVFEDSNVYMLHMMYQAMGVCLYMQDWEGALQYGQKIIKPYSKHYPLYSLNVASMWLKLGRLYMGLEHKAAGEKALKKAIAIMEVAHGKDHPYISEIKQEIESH

Question: For `COc1ncc(CN2C[C@H](C)[C@H](NC(=O)c3cc(C4CC4)on3)C2)cc1Br` (racemic) [compound 284, (±)-cis-N-{1-[(5-bromo-6-methoxypyridin-3-yl)methyl]-4-methyl-pyrrolidin-3-yl}-5-cyclopropyl-1,2-oxazole-3-carboxamide], which IC50 is on record?
Answer: The IC50 was 40.5 µM.

Question: For `CNC(=O)CN1C[C@@H](C)[C@H](NC(=O)c2cc(C3CC3)on2)C1` (racemic) [compound 286, (±)-trans-5-cyclopropyl-N-{4-methyl-1-[(methyl-carbamoyl)methyl]pyrrolidin-3-yl}-1,2-oxazole-3-carboxamide], which IC50 is on record?
Answer: The IC50 was over 50 µM.

Question: `CNC(=O)CN1C[C@H](C)[C@H](NC(=O)c2cc(C3CC3)on2)C1` (racemic) [compound 287, (±)-cis-5-cyclopropyl-N-{4-methyl-1-[(methyl-carbamoyl)methyl]pyrrolidin-3-yl}-1,2-oxazole-3-carboxamide] was tested. Which IC50 did it give?
Answer: Its IC50 is over 50 µM.

Question: Which IC50 does the source give for `C[C@H]1CN(Cc2c[nH]c(-c3ccccc3)n2)C[C@H]1NC(=O)c1cc(C2CC2)on1` (racemic) [compound 288, (±)-cis-5-cyclopropyl-N-{4-methyl-1-[(2-phenyl-1H-imidazol-4-yl)methyl]pyrrolidin-3-yl}-1,2-oxazole-3-carboxamide] here?
Answer: Its IC50 is 21.1 µM.

Question: For `C[C@H]1CN(Cc2ccc3c(c2)OCCN3C)C[C@H]1NC(=O)c1cc(C2CC2)on1` (racemic) [compound 289, (±)-cis-5-cyclopropyl-N-{4-methyl-1-[(4-methyl-3,4-dihydro-2H-1,4-benzoxazin-7-yl)methyl]pyrrolidin-3-yl}-1,2-oxazole-3-carboxamide], which IC50 is on record?
Answer: Its IC50 is 6.08 µM.

Question: Which IC50 does the source give for `C[C@H]1CN(Cc2ccc(S(C)(=O)=O)cc2)C[C@H]1NC(=O)c1cc(C2CC2)on1` (racemic) [compound 290, (±)-cis-5-cyclopropyl-N-{1-[(4-methane-sulfonylphenyl)methyl]-4-methylpyrrolidin-3-yl}-1,2-oxazole-3-carboxamide] here?
Answer: The IC50 was 10.5 µM.

Question: For `C[C@H]1CN(CCc2ccccc2)C[C@H]1NC(=O)c1cc(C2CC2)on1` (racemic) [compound 291, (±)-cis-5-cyclopropyl-N-[4-methyl-1-(2-phenylethyl)pyrrolidin-3-yl]-1,2-oxazole-3-carboxamide], which IC50 is on record?
Answer: The IC50 was 2.46 µM.

Question: Which IC50 does the source give for `C[C@@H]1CN(c2cnccn2)C[C@H]1NC(=O)c1cc(C2CC2)on1` (racemic) [compound 292, (±)-trans-5-cyclopropyl-N-[4-methyl-1-(pyrazin-2-yl)pyrrolidin-3-yl]-1,2-oxazole-3-carboxamide] here?
Answer: Its IC50 is over 50 µM.

Question: How did the IC50 turn out when `C[C@@H]1CN(CC(=O)N2CCCC2)C[C@H]1NC(=O)c1cc(C2CC2)on1` (racemic) [compound 293, (±)-trans-5-cyclopropyl-N-{4-methyl-1-[2-oxo-2-(pyrrolidin-1-yl)ethyl]pyrrolidin-3-yl}-1,2-oxazole-3-carboxamide] was run?
Answer: Its IC50 is over 50 µM.

Question: How did the IC50 turn out when `C[C@@H]1CN(CC(=O)N2CCN(C)CC2)C[C@H]1NC(=O)c1cc(C2CC2)on1` (racemic) [compound 294, (±)-trans-5-cyclopropyl-N-{4-methyl-1-[2-(4-methylpiperazin-1-yl)-2-oxoethyl]pyrrolidin-3-yl}-1,2-oxazole-3-carboxamide] was run?
Answer: The IC50 was over 50 µM.

Question: For `CC(=O)Nc1ccccc1N1C[C@@H](C)[C@H](NC(=O)c2cc(C3CC3)on2)C1` (racemic) [compound 295, (±)-trans-5-cyclopropyl-N-[1-(2-acetamido-phenyl)-4-methylpyrrolidin-3-yl]-1,2-oxazole-3-carboxamide], which IC50 is on record?
Answer: The IC50 was over 50 µM.

Question: `C[C@@H]1CN(c2ccccc2)C[C@H]1NC(=O)c1cc(C2CC2)on1` (racemic) [compound 296, (±)-trans-5-cyclopropyl-N-(4-methyl-1-phenyl-pyrrolidin-3-yl)-1,2-oxazole-3-carboxamide] was tested. Which IC50 did it give?
Answer: The IC50 was over 50 µM.

Question: With `C[C@@H]1CN(c2cccc(Cl)c2)C[C@H]1NC(=O)c1cc(C2CC2)on1` (racemic) [compound 297, (±)-trans-N-[1-(3-chloro-phenyl)-4-methyl-pyrrolidin-3-yl]-5-cyclopropyl-1,2-oxazole-3-carboxamide] as the compound, how does the IC50 read?
Answer: The IC50 was over 50 µM.

Question: `C[C@@H]1CN(c2ccc(Cl)cc2)C[C@H]1NC(=O)c1cc(C2CC2)on1` (racemic) [compound 298, (±)-trans-N-[1-(4-chloro-phenyl)-4-methyl-pyrrolidin-3-yl]-5-cyclopropyl-1,2-oxazole-3-carboxamide] was tested. Which IC50 did it give?
Answer: Its IC50 is over 50 µM.

Question: `COc1ccc(N2C[C@@H](C)[C@H](NC(=O)c3cc(C4CC4)on3)C2)cc1` (racemic) [compound 299, (±)-trans-5-cyclopropyl-N-[1-(4-methoxyphenyl)-4-methylpyrrolidin-3-yl]-1,2-oxazole-3-carboxamide] was tested. Which IC50 did it give?
Answer: The IC50 was over 50 µM.

Question: Which IC50 does the source give for `CC(C)N1C[C@H](C)[C@H](NC(=O)c2cc(C(F)F)on2)C1` (racemic) [compound 300, (±)-cis-5-(difluoro-methyl)-N-[4-methyl-1-(propan-2-yl)pyrrolidin-3-yl]-1,2-oxazole-3-carboxamide] here?
Answer: Its IC50 is 9.59 µM.

Question: Which IC50 does the source give for `C[C@H]1CN(c2ccccc2Cl)C[C@H]1NC(=O)c1cc(C2CC2)on1` (racemic) [compound 301, (±)-cis-N-[1-(2-chloro-phenyl)-4-methyl-pyrrolidin-3-yl]-5-cyclo-propyl-1,2-oxazole-3-carboxamide] here?
Answer: The IC50 was over 50 µM.

Question: `C[C@H]1CN(c2cnccn2)C[C@H]1NC(=O)c1cc(C2CC2)on1` (racemic) [compound 302, (±)-cis-5-cyclopropyl-N-[4-methyl-1-(pyrazin-2-yl)pyrrolidin-3-yl]-1,2-oxazole-3-carboxamide] was tested. Which IC50 did it give?
Answer: The IC50 was over 50 µM.

Question: `C[C@H]1CN(CC(N)=O)C[C@H]1NC(=O)c1cc(C2CC2)on1` (racemic) [compound 303, (±)-cis-N-[1-(carbamoyl-methyl)-4-methyl-pyrrolidin-3-yl]-5-cyclo-propyl-1,2-oxazole-3-carboxamide] was tested. Which IC50 did it give?
Answer: The IC50 was over 50 µM.

Question: How did the IC50 turn out when `C[C@H]1CN(CC(=O)N2CCNCC2)C[C@H]1NC(=O)c1cc(C2CC2)on1` (racemic) [compound 304, (±)-cis-5-cyclopropyl-N-{4-methyl-1-[2-oxo-2-(piperazin-1-yl)ethyl]pyrrolidin-3-yl}-1,2-oxazole-3-carboxamide] was run?
Answer: The IC50 was over 50 µM.

Question: How did the IC50 turn out when `C[C@H]1CN(Cc2nccn2C)C[C@H]1NC(=O)c1cc(C2CC2)on1` (racemic) [compound 305, (±)-cis-5-cyclopropyl-N-{4-methyl-1-[(1-methyl-1H-imidazol-2-yl)methyl]pyrrolidin-3-yl}-1,2-oxazole-3-carboxamide] was run?
Answer: The IC50 was 41.1 µM.

Question: With `C[C@H]1CN(Cc2ccnn2C)C[C@H]1NC(=O)c1cc(C2CC2)on1` (racemic) [compound 306, (±)-cis-5-cyclopropyl-N-{4-methyl-1-[(1-methyl-1H-pyrazol-5-yl)methyl]pyrrolidin-3-yl}-1,2-oxazole-3-carboxamide] as the compound, how does the IC50 read?
Answer: Its IC50 is 41.2 µM.

Question: How did the IC50 turn out when `C[C@H]1CN(c2cccc(Cl)c2)C[C@H]1NC(=O)c1cc(C2CC2)on1` (racemic) [compound 307, (±)-cis-N-[1-(3-chlorophenyl)-4-methylpyrrolidin-3-yl]-5-cyclopropyl-1,2-oxazole-3-carboxamide] was run?
Answer: The IC50 was over 50 µM.

Question: For `COc1ccc(N2C[C@H](C)[C@H](NC(=O)c3cc(C4CC4)on3)C2)cc1` (racemic) [compound 308, (±)-cis-5-cyclopropyl-N-[1-(4-methoxy-phenyl)-4-methyl-pyrrolidin-3-yl]-1,2-oxazole-3-carboxamide], which IC50 is on record?
Answer: Its IC50 is over 50 µM.

Question: Which IC50 does the source give for `C[C@@H]1CN(c2cccnc2)C[C@H]1NC(=O)c1cc(C2CC2)on1` (racemic) [compound 309, (±)-trans-5-cyclopropyl-N-[4-methyl-1-(pyridin-3-yl)pyrrolidin-3-yl]-1,2-oxazole-3-carboxamide] here?
Answer: Its IC50 is over 50 µM.

Question: With `C[C@@H]1CN(CC(N)=O)C[C@H]1NC(=O)c1cc(C2CC2)on1` (racemic) [compound 310, (±)-trans-N-[1-(carbamoylmethyl)-4-methylpyrrolidin-3-yl]-5-cyclopropyl-1,2-oxazole-3-carboxamide] as the compound, how does the IC50 read?
Answer: Its IC50 is over 50 µM.

Question: For `C[C@@H]1CN(CC(=O)N2CCNCC2)C[C@H]1NC(=O)c1cc(C2CC2)on1` (racemic) [compound 311, (±)-trans-5-cyclopropyl-N-{4-methyl-1-[2-oxo-2-(piperazin-1-yl)ethyl]pyrrolidin-3-yl}-1,2-oxazole-3-carboxamide], which IC50 is on record?
Answer: The IC50 was over 50 µM.

Question: Which IC50 does the source give for `C[C@@H]1CN(c2ccccn2)C[C@H]1NC(=O)c1cc(C2CC2)on1` (racemic) [compound 312, (±)-trans-5-cyclopropyl-N-[4-methyl-1-(pyridin-2-yl)pyrrolidin-3-yl]-1,2-oxazole-3-carboxamide] here?
Answer: Its IC50 is over 50 µM.

Question: Which IC50 does the source give for `C[C@@H]1CN(c2ccncc2)C[C@H]1NC(=O)c1cc(C2CC2)on1` (racemic) [compound 313, (±)-trans-5-cyclopropyl-N-[4-methyl-1-(pyridin-4-yl)pyrrolidin-3-yl]-1,2-oxazole-3-carboxamide] here?
Answer: Its IC50 is over 50 µM.

Question: For `C[C@@H]1CN(c2ccnc(N)n2)C[C@H]1NC(=O)c1cc(C2CC2)on1` (racemic) [compound 314, (±)-trans-N-[1-(2-amino-pyrimidin-4-yl)-4-methylpyrrolidin-3-yl]-5-cyclopropyl-1,2-oxazole-3-carboxamide], which IC50 is on record?
Answer: Its IC50 is over 50 µM.

Question: With `C[C@@H]1CN(c2ncccn2)C[C@H]1NC(=O)c1cc(C2CC2)on1` (racemic) [compound 315, (±)-trans-5-cyclopropyl-N-[4-methyl-1-(pyrimidin-2-yl)pyrrolidin-3-yl]-1,2-oxazole-3-carboxamide] as the compound, how does the IC50 read?
Answer: Its IC50 is over 50 µM.

Question: With `C[C@@H]1CN(c2ccncn2)C[C@H]1NC(=O)c1cc(C2CC2)on1` (racemic) [compound 316, (±)-trans-5-cyclopropyl-N-[4-methyl-1-(pyrimidin-4-yl)pyrrolidin-3-yl]-1,2-oxazole-3-carboxamide] as the compound, how does the IC50 read?
Answer: Its IC50 is over 50 µM.

Question: With `CC(c1ccccc1)N1C[C@H](C)[C@H](NC(=O)c2cc(C3CC3)on2)C1` (mixture of isomers) [compound 317, (±)-cis-5-cyclopropyl-N-[4-methyl-1-(1-phenyl-ethyl)pyrrolidin-3-yl]-1,2-oxazole-3-carboxamide] as the compound, how does the IC50 read?
Answer: The IC50 was 1.14 µM.
